According to article PMC5365645, “Preclinical Pharmacokinetics and Pharmacodynamic Target of SCY-078, a First-in-Class Orally Active Antifungal Glucan Synthesis Inhibitor, in Murine Models of Disseminated Candidiasis” (Antimicrobial Agents and Chemotherapy, 2017):
Read-outs that look alike come from different tables or passages of the source. *1 amine or outer side, *2 acyl side, *3 side chain or, on linkers, in order; H or OH if unused. Where a SMILES comes first, the peptide text is derived from it. Bridges are numbered along the chain shown (N, C = ends). [ ]: non-standard residue; d: D form. The star is where a group is joined. hTyr(3S-OH,4S-OH,3'-OSO3H) = N[C@H](C(=O)O)[C@H](O)[C@@H](O)c1ccc(O)c(OS(=O)(=O)O)c1; pTerphenylCO(4''-OnC5H11) = CCCCCOc1ccc(-c2ccc(-c3ccc(C(=O)*)cc3)cc2)cc1; Orn(4R-OH,5R-OH) = O=C([C@H](C[C@@H](O)[C@@H](O)N[*:3])N[*:1])[*:2]; hTyr(3S-OH,4S-OH) = N[C@H](C(=O)O)[C@H](O)[C@@H](O)c1ccc(O)cc1; Pro(3S-OH,4S-Me) = C[C@H]1CN[C@H](C(=O)O)[C@H]1O; X1 = CCCCCOc1ccc(-c2cc(-c3ccc(C(=O)*)cc3)no2)cc1; Gln(3R-OH) = NC(=O)C[C@@H](O)[C@H](N)C(=O)O; Hyp = O=C(O)[C@@H]1C[C@@H](O)CN1

Legend:
[1] = Human, cited from earlier work
[2] = Rabbit, cited from earlier work
[3] = cited from earlier work
[4] = Volume of distribution after i.v. administration (literature); details: in vivo, iv, Rat, calculated using previously published data ref 17, read-out: Vd ss
Text: TABLE 7 Volume of distribution for SCY-078 and echinocandins after i.v. administration | column: Vd ss (liters/kg)^a / Anidulafungin

C. albicans MY1055 = test: Immediate treatment murine model of disseminated candidiasis
[5] = Mouse, cited from earlier work
[6] = Rat, i.v. ref 26; cited from earlier work
[7] = design: method as in ref 26 = [26]; 26. Yamato Y , Kaneko H , Hashimoto T , Katashima M , Ishibashi K , Kawamura A , Terakawa M , Kagayama A 2002 Pharmacokinetics of the anti-fungal drug micafungin in mice, rats and dogs, and its in vit; details: Dog, i.v. ref 26; cited from earlier work

Compound: CCCCCOc1ccc(-c2ccc(-c3ccc(C(=O)N[C@H]4C[C@@H](O)[C@@H](O)NC(=O)[C@@H]5[C@@H](O)[C@@H](C)CN5C(=O)[C@H]([C@@H](C)O)NC(=O)[C@H]([C@H](O)[C@@H](O)c5ccc(O)cc5)NC(=O)[C@@H]5C[C@@H](O)CN5C(=O)[C@H]([C@@H](C)O)NC4=O)cc3)cc2)cc1 [Anidulafungin, anidulafungin] ({pTerphenylCO(4''-OnC5H11)}-[Orn(4R-OH,5R-OH)]T[Hyp][hTyr(3S-OH,4S-OH)]T[Pro(3S-OH,4S-Me)]; lactam 1-C)
- Vd ss ([1]; i.v. ref 31): 0.5 L/kg
- Vd ss ([2]; i.v. ref 28): 0.93–1.23 ([28]) liters/kg
- Kidney/plasma ratio ([3]; after i.v. delivery to rodents ref 17): 10.7
- Vd [4]: 2.16 L/kg

Compound: CC[C@H](C)C[C@H](C)CCCCCCCCC(=O)N[C@H]1C[C@@H](O)[C@@H](NCCN)NC(=O)[C@@H]2[C@@H](O)CCN2C(=O)[C@H]([C@H](O)CCN)NC(=O)[C@H]([C@H](O)[C@@H](O)c2ccc(O)cc2)NC(=O)[C@@H]2C[C@@H](O)CN2C(=O)[C@H]([C@@H](C)O)NC1=O [Caspofungin, caspofungin]
- Vd ss ([1]; i.v. ref 31): 0.14 ([31]) liters/kg
- Vd ss ([2]; i.v. ref 25): 0.28 L/kg
- Vd ss ([2]; i.v. ref 29): 0.26 L/kg
- Kidney/plasma ratio ([3]; after i.v. delivery to rodents ref 22): approximately 2.9
- Kidney/plasma ratio ([3]; after i.v. delivery to rodents, based on the total radioactivity over 24 h ref 23): 2.8
- Dose effective in clearing kidney fungal burden (C. albicans MY1055; administered intraperitoneally twice daily (data not shown)): ≥ 0.125 mg/kg
- Vd ss ([5]; i.v. ref 22): 0.25 L/kg
- Vd ss ([5]; i.v. ref 25): 0.45 L/kg

Compound: OC(Cn1cncn1)(Cn1cncn1)c1ccc(F)cc1F [FLU, fluconazole, reference compound]
- Clearance of fungal infection (C. albicans MY1055; up to 5 mg/kg p.o. BID): did not result in clearance of fungal infection in any of the animals tested

Compound: CCCCCOc1ccc(-c2cc(-c3ccc(C(=O)N[C@H]4C[C@@H](O)[C@@H](O)NC(=O)[C@@H]5[C@@H](O)[C@@H](C)CN5C(=O)[C@H]([C@H](O)CC(N)=O)NC(=O)[C@H]([C@H](O)[C@@H](O)c5ccc(O)c(OS(=O)(=O)O)c5)NC(=O)[C@@H]5C[C@@H](O)CN5C(=O)[C@H]([C@@H](C)O)NC4=O)cc3)no2)cc1 [Micafungin, micafungin] (X1-[Orn(4R-OH,5R-OH)]T[Hyp][hTyr(3S-OH,4S-OH,3'-OSO3H)][Gln(3R-OH)][Pro(3S-OH,4S-Me)]; lactam 1-C)
- Vd ss ([1]; i.v. ref 31): 0.21 to 0.24 L/kg
- Vd ss ([1]; i.v. ref 32): 0.26 L/kg
- Vd ss [6]: 0.42–0.56 ([26]) liters/kg
- Vd ss ([2]; i.v. ref 30): 0.313 ([30]) liters/kg
- Kidney/plasma ratio ([3]; after i.v. delivery to rodents ref 24): 3.4
- Vd ss ([5]; i.v. ref 26): 0.38–0.49 ([26]) liters/kg
- Vd ss [7]: 0.23–0.25 ([26]) liters/kg
